Some test systems named below: HCT-15 colon; SF-268 CNS; SNB-19 CNS; HCC-2998 colon; M14 melanoma; UACC-257 melanoma; OVCAR-5 ovarian; RXF 393 renal.
Common to all, as to experiment: inhibition of tumour cell growth, NCI panel, 48 h

“And” between values parts separate entries of the source, which are not always exact repeats. Equal values may be shown once.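 96-well plates; 48 h exposure; 5 concentrations. Endpoints by linear interpolation between flanking doses. Not reached: highest tested concentration assigned. GI50 is the concentration that inhibits growth by half. At the TGI there is no net growth.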 Some results are limits rather than exact numbers.

On to `COc1ccc(-c2coc3cc(OC)cc(O)c3c2=O)cc1`, for which the TGI in the assay with HCT-15 colon, in the assay with SF-268 CNS, in the assay with SNB-19 CNS, in the assay on HCC-2998 colon, in the assay on M14 melanoma and in the assay on UACC-257 melanoma was greater than 100 µM in each case. Besides, the results for the TGI with OVCAR-5 ovarian and with RXF 393 renal were greater than 100 µM and 83.1 µM, respectively.
Turning to `COc1ccc(/C=C/C(=O)c2ccc(Nc3ccnc4cc(Cl)ccc34)cc2)cc1`, the GI50 in the assay on HCT-15 colon, in the assay on SF-268 CNS, with SNB-19 CNS, with HCC-2998 colon, with M14 melanoma and with UACC-257 melanoma was greater than 100 µM in each case. For the same molecule, the GI50 in the assay with OVCAR-5 ovarian and with RXF 393 renal was greater than 100 µM throughout. The TGI in the assay with HCT-15 colon, in the assay with SF-268 CNS, with SNB-19 CNS, in the assay on HCC-2998 colon, in the assay with M14 melanoma and in the assay with UACC-257 melanoma was greater than 100 µM in each case. Also, the TGI with OVCAR-5 ovarian and with RXF 393 renal was greater than 100 µM throughout.
Regarding `COc1ccc(CC2C3=C(CCCC3)CCN2C)cc1` (stereo not drawn), the TGI in the assay with HCT-15 colon, with SF-268 CNS, with SNB-19 CNS, in the assay on HCC-2998 colon, with M14 melanoma and with UACC-257 melanoma was greater than 100 µM throughout. The TGI in the assay with OVCAR-5 ovarian and with RXF 393 renal was greater than 100 µM throughout.
`C=C1N(C)c2ccc(Cl)cc2C1(C)C`: the GI50 with HCT-15 colon was 29.1 µM; in the assay with SF-268 CNS, 5.71 µM; in the assay with SNB-19 CNS, 8.75 µM; in the assay on HCC-2998 colon it was 6.25 µM; in the assay with M14 melanoma it was 5.73 µM; in the assay on UACC-257 melanoma, 6.84 µM. Besides, the GI50 with OVCAR-5 ovarian is 31 µM; with RXF 393 renal, 6.41 µM. In addition, the TGI with HCT-15 colon is greater than 100 µM; in the assay on SF-268 CNS, greater than 100 µM; in the assay on SNB-19 CNS, greater than 100 µM; with HCC-2998 colon, greater than 100 µM; in the assay with M14 melanoma, 24.5 µM; in the assay on UACC-257 melanoma, 60.5 µM. The TGI with OVCAR-5 ovarian was greater than 100 µM; with RXF 393 renal, 35.8 µM.
As for `CC(=O)OCC1OC(n2c(-c3ccccc3)c(C)c(C)c(C#N)c2=S)C(OC(C)=O)C(OC(C)=O)C1OC(C)=O` (stereo not drawn), the TGI in the assay on HCT-15 colon, with SF-268 CNS, in the assay on SNB-19 CNS, in the assay on HCC-2998 colon, in the assay on M14 melanoma and in the assay with UACC-257 melanoma was greater than 100 µM in each case. The TGI with OVCAR-5 ovarian and with RXF 393 renal was greater than 100 µM each time. Moreover, the GI50 with SF-268 CNS is 18.3 µM and 93.3 µM; with SNB-19 CNS, 17.9 µM and 44.9 µM; with M14 melanoma it was 15.4 µM and 35 µM; in the assay on RXF 393 renal, 23.8 µM and 68.3 µM.
Turning to `Nc1nc2c(c3cnccc13)C(c1cccc(Cl)c1)Cc1cnccc1-2` (stereo not drawn), the GI50 in the assay with HCT-15 colon is 0.388 µM; in the assay with SF-268 CNS it was 0.741 µM; in the assay with SNB-19 CNS, 0.453 µM; with HCC-2998 colon, 1.29 µM; with M14 melanoma it was 0.297 µM; in the assay on UACC-257 melanoma it was 4.36 µM. In addition, the GI50 was 0.706 µM with OVCAR-5 ovarian and 0.268 µM with RXF 393 renal. The TGI in the assay with HCT-15 colon was 7.93 µM; in the assay with SF-268 CNS it was 16.5 µM; in the assay on SNB-19 CNS it was 12.4 µM; in the assay with HCC-2998 colon it was 12.8 µM; in the assay on M14 melanoma, 11 µM; in the assay with UACC-257 melanoma it was 22.5 µM. Further, the TGI was 18.6 µM in the assay on OVCAR-5 ovarian and 0.765 µM in the assay on RXF 393 renal.
As to `CC(=O)c1ccc(NCN2C(=O)c3ccccc3C2=O)cc1`, the TGI in the assay with HCT-15 colon, in the assay with SF-268 CNS, with SNB-19 CNS, with HCC-2998 colon, in the assay on M14 melanoma and with UACC-257 melanoma was greater than 100 µM throughout. Besides, the TGI with OVCAR-5 ovarian and in the assay on RXF 393 renal was greater than 100 µM throughout.
On to `CC(C)Oc1ccc(C(=O)N[C@H](CNC(=O)CN(C)C)Cc2ccc(-c3cn4cccc([C@H](C)O)c4n3)cc2)cc1Cl`, for which the GI50 with HCT-15 colon was 0.423 µM; with SF-268 CNS, 0.0727 µM; in the assay with SNB-19 CNS, 0.0625 µM; with HCC-2998 colon, 0.0695 µM; in the assay with M14 melanoma, 0.0301 µM; with UACC-257 melanoma it was 1.36 µM. Moreover, the GI50 is 0.0771 µM with OVCAR-5 ovarian and 0.0711 µM in the assay with RXF 393 renal. Also, the TGI was 19.4 µM with HCT-15 colon; 20.9 µM in the assay with SF-268 CNS; 23.9 µM in the assay on SNB-19 CNS; 17.3 µM in the assay on HCC-2998 colon; 0.15 µM in the assay on M14 melanoma; 11.3 µM in the assay on UACC-257 melanoma. Besides, the figures for the TGI in the assay with OVCAR-5 ovarian and with RXF 393 renal were 22.2 µM and 13.4 µM, respectively.
As for `Cn1c(=S)sc2nc3ccccc3n2c1=S`, the TGI with HCT-15 colon is 29.4 µM; in the assay on SF-268 CNS, 24.7 µM; with SNB-19 CNS it was 33.6 µM; in the assay with HCC-2998 colon, 35.2 µM; in the assay with M14 melanoma, 18.7 µM; in the assay on UACC-257 melanoma, 28.4 µM. For the same molecule, the figures for the TGI with OVCAR-5 ovarian and in the assay with RXF 393 renal were 29.1 µM and 27.4 µM, respectively.
